Series [1] is described as follows: RAS70 solution stability study (HPLC-QTOF/MS). The conditions noted are these: 1 mg/mL stock in sterile 0.9% sodium chloride, diluted working solutions, Protein LoBind tubes, HPLC-QTOF/MS peak area normalized to internal standard dalargin vs freshly prepared solutions. It is filed as physicochemical. The text has this: HPLC grade reagents include acetonitrile (1.00029) and formic acid (5.33002), were purchased from Sigma Aldrich. The deionized HPLC grade water was obtained through a Milli-Q system (Millipore, Milford, MA, USA). Sodium acetate (Sigma Aldrich, St. Louis, USA) was used for MS calibration. Dalargin (Tyrosyl-D-alanyl-glycyl-phenylalanyl-leucyl-arginine; UNII V13505565P) was used as an internal standard. Protein LoBind® Tubes (022431081, Eppendorf, Hamburg, Germany). The stock solution of RAS70 were prepared by dissolving 1 mg of RAS70 reference standard in 1 mL of a sterile solution of 0.9% sodium chloride in water. After centrifugation the supernatant were transferred into Protein LoBind Tubes (Eppendorf, Hamburg, Germany). Working standard solutions for stability study were prepared using a dilution method. All of the solutions were stored away from light at RT and in a refrigerator at +4°C. The samples were analyzed on a HPLC-QTOF/MS system (Bruker Daltonics, Bremen, Germany) that consisted of an Elute UHPLC coupled to Q-TOF Maxis Impact equipped with an electrospray ionization source ( Supplementary Figure S1 ). […] Chromatograms and mass spectra were analyzed using DataAnalysis® 5.0 software (Bruker Daltonics GmbH, Bremen, Germany). […]

For the next series, the system named is primary GBM IBD cells. As to the kind of experiment: Cell motility analysis. It counts as cell-based, human. As to conditions: 56 h recording. Here is the method: The cell speed of the primary GBM culture was determined using Image ExFluorer, an automatic cell imaging device (LCI, Korea). The cells were seeded into 24-well plates, and the cell nuclei were labelled with the fluorescent dye Hoechst 33342. The plates were then placed in an integrated incubator with temperature control (37°C) and 5% CO2. The fluorescence was stimulated at 405 nm using a long-focus semi-apochromatic 20× lens with a numerical aperture of 0.45. The primary IBD cell line was divided into 4 wells, each with five visual fields: two untreated wells on distinct matrices (Collagen I and Fibrinogene) and two wells containing RAS70 peptide on matrices.
FOVs were captured every 15 minutes over 56 hours, resulting in images with a resolution of 2.560 × 2.160 pixels (0.33 μm/px). Real-time focus correction was used. The captured frames were analyzed using the NIS-Elements software with a module for automatic segmentation, quantification, and tracking of individual cells. Cell nuclei (with a diameter of more than 2.5 μm) were recognized in images, and the X-Y coordinates of the nuclei were recorded. Cell movement tracks were built according to the coordinates of the nuclei, and the motility metrics (average speed, maximal speed, and track straightness) were calculated.
Additionally, we evaluated the effect of RAS70 peptide on cell motility of primary glioblastoma culture. In order to investigate the possible influence of the RAS70 peptide on the invasive capacity of tumor cells, we conducted an experiment in which we recorded cell motility on two different substrates (Collagen I, Fibrinogen) for 56 h.

Series [2] concerns C6, GL261, and T98G cells. Briefly: MTT test, overall statement for all cell lines studied. As to conditions: fluorescently labeled peptides, 7.5, 75, 750 µg/mL, 24, 48 and 72 hours.
Protocol: 3-(4,5-dimethylthiazol-2-yl)-2,5-diphenyltetrazolium bromide (MTT) assay was performed to evaluate the cytotoxic effect of TKD-sCy5, RAS70-sCy5, and NGL-RGD-sCy5 peptides. The C6, GL261, and T98G cells were seeded in 96-well plates (Thermo Fisher Scientific, Waltham, USA) at concentration of 5*10^3 cells in 100 µL per well, plates were incubated at 37°C in 5% CO2. After 24 hours, peptides were added to the culture medium for final concentration of 7.5, 75, and 750 μg/mL; plates were incubated for 24, 48 and 72 hours. […] At the end of the incubation period, 1 mg/mL MTT solution was added for 4 hours and dissolved with DMSO. The absorbance was measured at 570 nm using Varioskan LUX Multimode Microplate Reader (Thermo Fisher Scientific, Waltham, USA).
Subsequently, we analyzed the cytotoxic effect of the peptides (RAS70, TKD, NGL, NGL-RGD) using the MTT test at various peptides concentrations (7.5, 75, 750 µg/mL) and co-incubation times of 24, 48 and 72 hours.
Series [3] concerns C6 cells (lower chamber; HUVEC and astrocytes barrier). Briefly: Transwell BBB model, peptide passage and accumulation in tumor cells. As to conditions: transwell BBB model: HUVEC (5×10^5) and astrocytes (5×10^5) in upper chamber, C6 (1×10^4) in lower chamber; FITC-labeled peptide; 36 hours; confocal microscopy count; M ± SE, 3 independent experiments.
Protocol: (§1) Then, a peptide labeled with a fluorescent label was introduced into the upper chamber and co-incubation was carried out for 12, 24 and 36 hours. At the end of the incubation, the tumor cells were washed with cold phosphate-buffered saline (PBS) and fixed with a 4% solution of paraformaldehyde in PBS. Nuclei were stained with 4’,6-diamidino-2-phenylindole (DAPI). Fluorescent images were obtained using a Leica TCS SP8 confocal microscope (Leica, Germany). To avoid possible cross-interference of different fluorochromes, images for DAPI and FITC were obtained using a sequential sample scanning method. Fluorescently labeled cells were counted in the lower chamber. To estimate the mHsp70-mediated uptake of chaperone-targeted peptides tumor cells prior to incubation were pre-treated with anti-Hsp70 monoclonal antibodies SPA-810 (1:250, Stressgen) and SPA-815 (1:250 Stressgen). To exclude integrin (αvβ3, αvβ5)-mediated penetration of RAS70 tumor cells prior to incubation with peptides were pre-treated with anti- αvβ3 (1:200 clone LM609, ZMS1030, Sigma-Aldrich, USA), -αvβ5 (1:200 clone P1F6, MAB1961Z, Sigma-Aldrich, USA) monoclonal antibodies.
(§2) Then, a peptide labeled with a fluorescent dye (FITC) was introduced into the upper chamber and co-incubation was carried out for 12, 24 and 36 hours. At the end of the incubation, the tumor cells were washed with cold phosphate-buffered saline (PBS) and fixed with a 4% solution of paraformaldehyde in PBS. Nuclei were stained with 4’,6-diamidino-2-phenylindole (DAPI).
(§3) Data from 3 independent experiments are presented as M ± SE. […] Data from 3 independent experiments are presented as M ± SE. ** p < 0.01 for testing mean expression levels.
Series [4] has as its system U251 cells (lower chamber; HUVEC and astrocytes barrier). The series is described as above. As to conditions: transwell BBB model: HUVEC (5×10^5) and astrocytes (5×10^5) in upper chamber, U251 (1×10^4) in lower chamber; FITC-labeled peptide; 36 hours; confocal microscopy count; M ± SE, 3 independent experiments.
Protocol: as §1, §2, §3

The source of these data is article PMC11973282, “RAS70 peptide targets multiforme glioblastoma by binding to the plasma membrane heat shock protein HSP70” (Frontiers in Oncology, 2025).

Take `CC(C)C[C@H](NC(=O)[C@H](CC(C)C)NC(=O)[C@H](CC(N)=O)NC(=O)[C@H](CC(N)=O)NC(=O)[C@H](CC(=O)O)NC(=O)[C@H](CCCCN)NC(=O)[C@@H](N)[C@@H](C)O)C(=O)NCC(=O)N[C@@H](CCCNC(=N)N)C(=O)N[C@@H](Cc1ccccc1)C(=O)N[C@@H](CCC(=O)O)C(=O)N[C@@H](CC(C)C)C(=O)N[C@@H](CO)C(=O)NCC(=O)NCCC(=O)N[C@@H](CCCNC(=N)N)C(=O)NCC(=O)N[C@@H](CC(=O)O)C(=O)O` [RAS70]: the “time for which RAS70 solution was stable” value in series [1] (storage at RT away from light) is 1 week. Besides, the “time for which RAS70 solution was stable” value in series [1] (storage in refrigerator at +4°C away from light) is listed as 1 week. Besides, in the series with primary GBM IBD cells (IBD cells on Collagen I), the “effect on average cell speed” value is on record as “no effect on the average cell speed”, the “effect on maximum cell speed” value was “slightly diminished maximum cell speed” and the “effect on track straightness” value is listed as “increased the straightness of the trajectories”. Besides, the “effect on motility metrics (average speed, max speed, track straightness)” value in the series with primary GBM IBD cells (IBD cells on fibrinogen) was “did not affect any of the measured motility metrics”.
For the compound `CC(C)C[C@H](NC(=O)[C@H](CC(C)C)NC(=O)[C@H](CC(N)=O)NC(=O)[C@H](CC(N)=O)NC(=O)[C@H](CC(=O)O)NC(=O)[C@H](CCCCN)NC(=O)[C@@H](N)[C@@H](C)O)C(=O)NCC(=O)N[C@@H](CCCNC(=N)N)C(=O)N[C@@H](Cc1ccccc1)C(=O)N[C@@H](CCC(=O)O)C(=O)N[C@@H](CC(C)C)C(=O)N[C@@H](CO)C(=O)NCC(=O)O` [TKD], the “cytotoxic effect (MTT test)” value in series [2] was “did not reveal the toxic effect”. Further, the “fluorescently labeled tumor cells in the lower chamber” value in series [3] worked out at 301 ± 35 cells; in series [4], 345 ± 51 cells.
